Data taken from patent publication US11117915B2, “Antibacterial aminoglycoside analogs” (Cipla USA, Inc., priority 2007, dated 2021).
In brackets after ≈: the same amount, converted by molar mass. Read-outs that look alike come from different tables or passages of the source.

Columns and labels:
[1] = test system: E. coli ATCC 25922; assay: MIC assay, CLSI broth microdilution, E. coli ATCC 25922 (AECO001); format: cell-based; settings: for MIC: Escherichia coli, read-out: MIC AECO001
Procedure: (§1) Minimum inhibitory concentrations (MIC) were determined by reference Clinical and Laboratory Standards Institute (CLSI) broth microdilution methods per M7-A7 [2006]. Quality control ranges utilizing E. coli ATCC 25922, P. aeruginosa ATCC 27853 and S. aureus ATCC 29213, and interpretive criteria for comparator agents were as published in CLSI M100-S17 [2007]. Briefly, serial two-fold dilutions of the test compounds were prepared at 2× concentration in Mueller Hinton Broth. The compound dilutions were mixed in 96-well assay plates in a 1:1 ratio with bacterial inoculum. The inoculum was prepared by suspension of a colony from an agar plate that was prepared the previous day. Bacteria were suspended in sterile saline and added to each assay plate to obtain a final concentration of 5×10^5 CFU/mL. The plates were incubated at 35° C. for 20 hours in ambient air.
These MIC assays were conducted following the same protocol as set forth in Example 110. As shown, substituted sisomicin derivatives with groups other than methyl at the 6′-position have improved activity against strains expressing the AAC6′-modifying enzymes.

[2] = test system: P. aeruginosa ATCC 27853; assay: MIC assay, CLSI broth microdilution, P. aeruginosa ATCC 27853 (APAE001); format: cell-based; settings: for MIC: Pseudomonas aeruginosa, read-out: MIC APAE001
Procedure: as §1

[3] = AECO001 is ATCC25922, 35° C., 20 hours
[4] = APAE001 is ATCC27853, 35° C., 20 hours

SMILES | MIC ([1]; ATCC25922, 20 h) [µg/mL] | MIC ([2]; ATCC27853, 20 h) [µg/mL] | further results
CN[C@@H]1[C@@H](O)[C@@H](O[C@@H]2[C@@H](O)[C@H](O[C@H]3OC(CNCCN)=CC[C@H]3N)[C@@H](N)C[C@H]2NC(=O)[C@@H](O)CCN)OC[C@]1(C)O [Example 38, 6′-(2-Amino-ethyl)-1-(4-amino-2(S)-hydroxy-butyryl)-sisomicin] | < 1 | 1 to 16 (≈ 1.69 to 27 µM) | –
CN[C@@H]1[C@@H](O)[C@@H](O[C@@H]2[C@@H](O)[C@H](O[C@H]3OC(CNCCCN)=CC[C@H]3N)[C@@H](N)C[C@H]2NC(=O)CO)OC[C@]1(C)O [Example 24, 6′-(3-Amino-propyl)-1-(2-hydroxy-acetyl)-sisomicin] | 1 to 16 (≈ 1.78 to 28.4 µM) | 1 to 16 (≈ 1.78 to 28.4 µM) | –
CN[C@@H]1[C@@H](O)[C@@H](O[C@@H]2[C@@H](O)[C@H](O[C@H]3OC(CN)=CC[C@H]3NCCCN)[C@@H](N)C[C@H]2NC(=O)[C@@H](O)CCN)OC[C@]1(C)O [Example 91, 2′-(3-Amino-propyl)-1-(4-amino-2(S)-hydroxy-butyryl)-sisomicin] | < 1 | < 1 | –
CN[C@@H]1[C@@H](O)[C@@H](O[C@@H]2[C@@H](O)[C@H](O[C@H]3OC(CNCCNC4CNC4)=CC[C@H]3N)[C@@H](N)C[C@H]2NC(=O)[C@@H](O)CN)OC[C@]1(C)O [Example 81, 6′-(N-(Azetidin-3-yl)-2-amino-ethyl)-1-(3-amino-2(S)-hydroxy-propionyl)-sisomicin] | 1 to 16 (≈ 1.58 to 25.3 µM) | > 16 | –
CN[C@@H]1[C@@H](O)[C@@H](O[C@@H]2[C@@H](O)[C@H](O[C@H]3OC(CNCCC(N)C4CC4)=CC[C@H]3N)[C@@H](N)C[C@H]2NC(=O)[C@@H](O)CN)OC[C@]1(C)O (stereo partly drawn) [Example 52, 6′-(3-Amino-3-cyclopropyl-propyl)-1-(3-amino-2(S)-hydroxy-propionyl)-sisomicin] | – | – | MIC AECO001 [1, 3]: A (MIC's of 1.0 μg/mL or less = A); MIC APAE001 [2, 4]: B (MIC's of greater than 1.0 μg/mL to 16.0 μg/mL = B)
CN[C@@H]1[C@@H](O)[C@@H](O[C@@H]2[C@@H](O)[C@H](O[C@H]3OC(CNCCCN)=CC[C@H]3N)[C@@H](N)C[C@H]2NC(=O)[C@@H](O)CCN)OC[C@]1(C)O [Example 48, 6′-(3-Amino-propyl)-1-(4-amino-2(S)-hydroxy-butyryl)-sisomicin] | – | – | MIC [1, 3]: < 1 µg/mL; MIC AECO001 ([1]; Table 3, E. coli ATCC25922): 1 µg/mL (≈ 1.65 µM); MIC [2, 4]: 1 to 16 µg/mL (≈ 1.65 to 26.4 µM)
CN[C@@H]1[C@@H](O)[C@@H](O[C@@H]2[C@@H](O)[C@H](O[C@H]3OC(CNCC(N)CO)=CC[C@H]3N)[C@@H](N)C[C@H]2NC(=O)[C@@H](O)CCN)OC[C@]1(C)O (stereo partly drawn) [Example 30, 6′-(2-Amino-propanol)-1-(4-amino-2(S)-hydroxy-butyryl)-sisomicin] | < 1 | 1 to 16 (≈ 1.61 to 25.7 µM) | –
CN[C@@H]1[C@@H](O)[C@@H](O[C@@H]2[C@@H](O)[C@H](O[C@H]3OC(CNCC4CC4)=CC[C@H]3N)[C@@H](N)C[C@H]2NC(=O)C2(O)CCNC2)OC[C@]1(C)O (some centres unmarked) [Example 41] | < 1 | 1 to 16 (≈ 1.63 to 26 µM) | –
CN[C@@H]1[C@@H](O)[C@@H](O[C@@H]2[C@@H](O)[C@H](O[C@H]3OC(CNCC(O)CN)=CC[C@H]3N)[C@@H](N)C[C@H]2NC(=O)C2(O)CCNC2)OC[C@]1(C)O (some centres unmarked) [Example 42, 6′-(2-Hydroxy-3-amino-propyl)-1-(3-hydroxy-pyrrolidin-3-yl-acetyl)-sisomicin] | 1 to 16 (≈ 1.58 to 25.2 µM) | 1 to 16 (≈ 1.58 to 25.2 µM) | –
CN[C@@H]1[C@@H](O)[C@@H](O[C@@H]2[C@@H](O)[C@H](O[C@H]3OC(CNCC4CC4)=CC[C@H]3N)[C@@H](N)C[C@H]2NC(=O)[C@@H](O)CCN)OC[C@]1(C)O [Example 18, 6′-(Methyl-cyclopropyl)-1-(4-amino-2(S)-hydroxy-butyryl)-sisomicin] | – | – | MIC [1, 3]: < 1 µg/mL; MIC AECO001 ([1]; Table 3, E. coli ATCC25922): 1 µg/mL (≈ 1.66 µM); MIC [2, 4]: 1 to 16 µg/mL (≈ 1.66 to 26.5 µM)
CN[C@@H]1[C@@H](O)[C@@H](O[C@@H]2[C@@H](O)[C@H](O[C@H]3OC(CNCC(O)CO)=CC[C@H]3N)[C@@H](N)C[C@H]2NS(=O)(=O)CCN)OC[C@]1(C)O (some centres unmarked) [Example 27, 6′-(2-Hydroxy-propanol)-1-(2-amino-ethylsulfonamide)-sisomicin] | 1 to 16 (≈ 1.59 to 25.4 µM) | > 16 | –
CN[C@@H]1[C@@H](O)[C@@H](O[C@@H]2[C@@H](O)[C@H](O[C@H]3OC(CNCCO)=CC[C@H]3N)[C@@H](N)C[C@H]2NS(=O)(=O)CCN)OC[C@]1(C)O [Example 29, 6′-(2-Hydroxy-ethyl)-1-(2-amino-ethylsulfonamide)-sisomicin] | 1 to 16 (≈ 1.67 to 26.7 µM) | > 16 | –
CN[C@@H]1[C@@H](O)[C@@H](O[C@@H]2[C@@H](O)[C@H](O[C@H]3OC(CNCCO)=CC[C@H]3N)[C@@H](N)C[C@H]2NC(=O)[C@H](O)CN)OC[C@]1(C)O [Example 9, 6′-(2-Hydroxy-ethyl)-1-(3-amino-2(R)-hydroxy-propionyl)-sisomicin] | 1 to 16 (≈ 1.73 to 27.6 µM) | > 16 | –
CN[C@@H]1[C@@H](O)[C@@H](O[C@@H]2[C@@H](O)[C@H](O[C@H]3OC(CNC[C@@H]4C[C@H](N)CN4)=CC[C@H]3N)[C@@H](N)C[C@H]2NC(=O)[C@@H](O)CN)OC[C@]1(C)O [Example 65, 6′-(Methyl-4(S)-amino-pyrrolidin-2(S)-yl)-1-(3-amino-2(S)-hydroxy-propionyl)-sisomicin] | 1 to 16 (≈ 1.58 to 25.3 µM) | 1 to 16 (≈ 1.58 to 25.3 µM) | –
CN[C@@H]1[C@@H](O)[C@@H](O[C@@H]2[C@@H](O)[C@H](O[C@H]3OC(CNCC4(O)CC(N)C4)=CC[C@H]3N)[C@@H](N)C[C@H]2NC(=O)C(O)C2CNC2)OC[C@]1(C)O (some centres unmarked) [Example 83, 6′-(Methyl-3-amino-1-hydroxy-cyclobutyl)-1-(2-(azetidin-3-yl)-2-hydroxy-acetyl)-sisomicin] | 1 to 16 (≈ 1.52 to 24.3 µM) | > 16 | –
CN[C@@H]1[C@@H](O)[C@@H](O[C@@H]2[C@@H](O)[C@H](O[C@H]3OC(CNCCCN)=CC[C@H]3N)[C@@H](N)C[C@H]2NC(=O)[C@H](O)CN)OC[C@]1(C)O [Example 11, 6′-(3-Amino-propyl)-1-(3-amino-2(R)-hydroxy-propionyl)-sisomicin] | < 1 | 1 to 16 (≈ 1.69 to 27 µM) | –
CN[C@@H]1[C@@H](O)[C@@H](O[C@@H]2[C@@H](O)[C@H](O[C@H]3OC(CNCCCN)=CC[C@H]3N)[C@@H](N)C[C@H]2NC(=O)C2(O)CCNC2)OC[C@]1(C)O (some centres unmarked) [Example 40] | 1 to 16 (≈ 1.62 to 25.9 µM) | 1 to 16 (≈ 1.62 to 25.9 µM) | –
CN[C@@H]1[C@@H](O)[C@@H](O[C@@H]2[C@@H](O)[C@H](O[C@H]3OC(CN)=CC[C@H]3NS(=O)(=O)CCN)[C@@H](N)C[C@H]2NC(=O)[C@@H](O)CCN)OC[C@]1(C)O [Example 93, 2′-(2-Amino-ethyl-sulfonamide)-1-(4-amino-2(S)-hydroxy-butyryl)-sisomicin] | < 1 | 1 to 16 (≈ 1.52 to 24.4 µM) | –
CNCC(=O)N[C@@H]1CC=C(CN)O[C@@H]1O[C@H]1[C@H](O)[C@@H](O[C@H]2OC[C@](C)(O)[C@H](NC)[C@H]2O)[C@H](NC(=O)[C@@H](O)CCN)C[C@@H]1N [Example 86, 2′-(N-Methyl-amino-acetyl)-1-(4-amino-2(S)-hydroxy-butyryl)-sisomicin] | 1 to 16 (≈ 1.61 to 25.8 µM) | 1 to 16 (≈ 1.61 to 25.8 µM) | –
CN[C@@H]1[C@@H](O)[C@@H](O[C@@H]2[C@@H](O)[C@H](O[C@H]3OC(CNC[C@H]4C[C@H](N)C4)=CC[C@H]3NC(=N)N)[C@@H](N)C[C@H]2N)OC[C@]1(C)O [Example 107, 6′-(Methyl-trans-3-amino-cyclobutyl)-2′-guanidinium-sisomicin] | 1 to 16 (≈ 1.75 to 27.9 µM) | < 1 | –
CN[C@@H]1[C@@H](O)[C@@H](O[C@@H]2[C@@H](O)[C@H](O[C@H]3OC(CNC[C@H]4C[C@H](N)C4)=CC[C@H]3N)[C@@H](N)C[C@H]2NC(=O)[C@@H](O)CCN)OC[C@]1(C)O [Example 33, 6′-(Methyl-trans-3-amino-cyclobutyl)-1-(4-amino-2(S)-hydroxy-butyryl)-sisomicin] | < 1 | 1 to 16 (≈ 1.58 to 25.3 µM) | –
CN[C@@H]1[C@@H](O)[C@@H](O[C@@H]2[C@@H](O)[C@H](O[C@H]3OC(CNCC(O)CCN)=CC[C@H]3N)[C@@H](N)C[C@H]2NC(=O)C2(O)CCNC2)OC[C@]1(C)O (some centres unmarked) [Example 35] | < 1 | 1 to 16 (≈ 1.54 to 24.7 µM) | –
CN[C@@H]1[C@@H](O)[C@@H](O[C@@H]2[C@@H](O)[C@H](O[C@H]3OC(CNCCO)=CC[C@H]3N)[C@@H](N)C[C@H]2NC(=O)C2(O)CC(N)C2)OC[C@]1(C)O (some centres unmarked) [Example 62] | < 1 | 1 to 16 (≈ 1.65 to 26.5 µM) | –
CN[C@@H]1[C@@H](O)[C@@H](O[C@@H]2[C@@H](O)[C@H](O[C@H]3OC(CNC[C@H]4C[C@H](N)C4)=CC[C@H]3N)[C@@H](N)C[C@H]2NC(=O)C(O)C2CNC2)OC[C@]1(C)O (stereo partly drawn) [Example 72, 6′-(Methyl-trans-3-amino-cyclobutyl)-1-(2-(azetidin-3-yl)-2-hydroxy-acetyl)-sisomicin] | 1 to 16 (≈ 1.55 to 24.9 µM) | 1 to 16 (≈ 1.55 to 24.9 µM) | –
